# In paper PMC7699649 (Communications Biology, 2020):
# Several values for one entry are separate records, joined by “and”; a condition that tells them apart may be missing. Equal entries are not always repeated. Non-standard residues stand in square brackets, D forms with d. Residues, ends and D or L forms follow the SMILES beside them.
# Key:
# IL-6 = experiment: Murine EMRSA-15 lung infection model: BAL cytokine ELISA; type: in vivo, C57Bl6J mice; settings: 600 mg/kg vancomycin or D-pleurocidin-KR (also lowest dose 0.15 mg/kg) i.v., 48 h
# HEK293 = type: cell-based, human; settings: XTT, 24 h with peptide, OD475; Eagle's Minimum Essential Media, 10% FBS; average and standard error of three biological replicates
# Protocol: HeLa and HEK293 cell lines were purchased from ECACC and cultured in Eagle’s Minimum Essential Media containing glutamine, supplemented with 10% FBS and 1X non-essential amino acids. A549 and Calu-3 cell lines were purchased from ATCC. […] Cytotoxicity was measured by incubating starter cultures of cells for 24 h in a 96 well plate, gently removing the supernatant and replacing it with dilutions of peptides and controls, incubating for a further 24 h and then staining of the cells with the second-generation tetrazolium dye, XTT.
# TNFα = experiment: Murine EMRSA-15 lung infection model: BAL cytokine ELISA; type: in vivo, C57Bl6J mice; settings: vancomycin or D-pleurocidin-KR i.v., 48 h
# [1] = in words
# EMRSA-15 = experiment: 1H HR-MAS NMR metabolomics of bacterial pellets; type: cell-based, Staphylococcus aureus; settings: EMRSA-15 in MHB, sub-inhibitory challenge v unchallenged; fold change, 1H HR-MAS NMR of pellets
# Protocol: S. aureus EMRSA-15 and P. aeruginosa RP73 were streaked on Mueller Hinton agar plates and RPMI (supplemented with 5% FBS) agar plates and incubated at 37 °C overnight or until single colonies formed. […] Cultures were incubated overnight at 37 °C without shaking and pelleted by centrifugation at 4 °C. The supernatant was removed and filtered separately for spent media analysis, the pellet was briefly washed three times with phosphate buffered saline (PBS). The pellets were frozen in liquid nitrogen and lyophilised overnight in an Alpha 1–2 LD plus freeze dryer (Martin Christ, Germany) and stored at −20 °C until required. Samples were transferred into HR-MAS inserts for use in 4 mm Bruker MAS rotor and resuspended in 30 μl of D2O containing 3-(Trimethylsilyl)propionic-2,2,3,3-D4 acid sodium salt (TMSP-2,2,3,3-D4). The removed supernatant was filtered through 0.2 μm filters and pH adjusted to within 0.3 pH units within the same sample set. The samples were supplemented with 10% D2O containing TMSP-2,2,3,3-D4 and loaded into 5.0 mm NMR tubes.
# NMR spectra were collected at 600 MHz for ^1H on a Bruker Avance II spectrometer (Bruker Biospin, Coventry, UK) with a 4 mm HR-MAS probe at 310 K while spinning at 5 kHz. ^1H NMR spectra were acquired using a Carr-Purcell Meiboom-Gill pre-saturation (cpmgpr1d) pulse sequence with a spectrum width of 16.0 ppm and 9615 data points using 64 transients. Free induction decay was multiplied by an exponential function with 0.293 Hz line broadening. 2D ^1H–^1H correlation spectroscopy (COSY) and ^1H–^13C Heteronuclear Single Quantum Correlation (HSQC) experiments were performed on representative datasets using standard Bruker settings.
# The spectra were Fourier transformed automatically using standard Bruker commands and manually phased and baseline corrected in Bruker TopSpin 4.0 (Bruker Biospin, Coventry, UK). Spectral pre-processing, cross-validation and multivariate analysis were carried out using the in-house programme developed by Dr Louic Vermeer and MVAPACK, an opensource Octave library for NMR metabolomic data processing and analysis. Pre-processing modifies NMR spectra and reduces the variances and influences which are not of interest and may interfere with data analysis, for example, residual water peak or noise and the TSP reference peak. Initially a principle component analysis was carried out to identify clustering spectra and potential outliers in the data, due to e.g. poor baseline. Data were then subject to probabilistic quotient normalisation before binning and alignment. Orthogonal Projections to Latent Structures Discriminant Analysis analyses were conducted to establish the quality of binary comparisons of the metabolomic data (Supplementary Table 4). […] The Mann–Whitney U test was used to compare means and associated p values were false discovery rate adjusted using the Benjamini-Hochberg method (α = 0.05). Box plots were generated using changes in normalised intensity for each metabolite and significant differences between challenges and controls were determined using a one-way ANOVA. Volcano plots and box plots were generated using in-house software developed for Jupyter Notepad using Python 3.7.0. Metabolites were assigned using the databanks: Chenomx NMR suite software (Chenomx Inc., Canada), Human Metabolome Database, BMRB, E. coli Metabolome Database and AOCS lipid library; and a comparison of chemical shifts to the literature, which was confirmed using 2D NMR spectra. Annotated spectra can be found in the supplementary materials (Supplementary Fig. 15). Metaboanalyst and KEGG were later used to identify key pathways that may be affected by these metabolites.
# human red blood cells = experiment: Haemolysis assay; type: cell-based; settings: human red blood cells in PBS, 1 h 37 °C, OD550, relative to 0.1% Triton-X-100
# Protocol: Haemolysis was tested by incubating titrations of AMPs in PBS with freshly collected human red blood cells for 1 h at 37 °C. Control wells were treated with 0.1% Triton-X-100 to ensure complete lysis, or PBS-only to represent no lysis. Samples were spun down to remove non-lysed cells and the OD550 of the supernatant was measured using a Clariostar plate reader. The percentage of haemolysis was calculated as % haemolysis = (AP − AB)/(AC − AB) × 100, where AP is the absorbance value for a known peptide concentration, AC is the absorbance of the 0.1% Triton-X-100 control, AB is the absorbance of the PBS control. Data presented are averages and standard error from three biological replicate experiments.
smiles,measurement,setting,value
CC(C)C[C@@H](NC(=O)[C@@H](Cc1ccc(O)cc1)NC(=O)[C@@H](Cc1c[nH]cn1)NC(=O)[C@H](NC(=O)[C@@H](CC(C)C)NC(=O)[C@@H](C)NC(=O)[C@@H](C)NC(=O)[C@@H](CCCNC(=N)N)NC(=O)CNC(=O)[C@H](NC(=O)[C@@H](Cc1c[nH]cn1)NC(=O)[C@@H](CCCNC(=N)N)NC(=O)CNC(=O)[C@H](NC(=O)[C@@H](Cc1c[nH]cn1)NC(=O)[C@@H](C)NC(=O)[C@@H](C)NC(=O)[C@@H](CCCNC(=N)N)NC(=O)[C@@H](CCCNC(=N)N)NC(=O)[C@@H](Cc1ccccc1)NC(=O)[C@@H](Cc1ccccc1)NC(=O)[C@@H](CO)NC(=O)CNC(=O)[C@@H](Cc1c[nH]c2ccccc12)NC(=O)CN)C(C)C)C(C)C)[C@H](C)O)C(N)=O [D-pleurocidin-KR] (H-G[dW]G[dS][dF][dF][dR][dR][dA][dA][dH][dV]G[dR][dH][dV]G[dR][dA][dA][dL][dT][dH][dY][dL]-NH2; N-terminus assumed),IL-6 in BAL,IL-6,reduced
same,Toxicity HEK293 (EC50 / IC50),HEK293,(36.4 ± 4.3) µg/ml
same,levels of TNFα in BAL,TNFα,No effects
same,solubility in aqueous media,[1],readily soluble
same,fc 2-aminobutyrate,EMRSA-15,0.991
same,fc Acetate,EMRSA-15,1.149
same,fc Acetyl-Phosphocholine (1),EMRSA-15,0.9923
same,fc Acetyl-Phosphocholine (2),EMRSA-15,1.003
same,fc Adenosine,EMRSA-15,1.125
same,fc Alanine,EMRSA-15,0.9478
same,fc Aspartate,EMRSA-15,0.8483
same,fc Betaine,EMRSA-15,0.9779
same,fc Choline,EMRSA-15,1.051
same,fc Citrulline,EMRSA-15,0.9363
same,fc Glutamate,EMRSA-15,0.896
same,fc Glycerol (lipid headgroup) (1),EMRSA-15,0.9028
same,fc Glycerol (lipid headgroup) (2),EMRSA-15,1.031
same,fc Glycerol (lipid headgroup) (3),EMRSA-15,0.9777
same,fc Isoleucine,EMRSA-15,1.148
same,fc Lactate,EMRSA-15,1.293
same,fc Leucine,EMRSA-15,1.172
same,fc Lipid -CH=CH-,EMRSA-15,1.134
same,fc Lipid-CH₃,EMRSA-15,1.116
same,fc Lysine,EMRSA-15,1.027
same,fc N-acetyl-x (1),EMRSA-15,0.8941
same,fc N-acetyl-x (2),EMRSA-15,1.036
same,fc N-acetyl-x (3),EMRSA-15,0.9489
same,fc Proline,EMRSA-15,1.056
same,fc Succinate,EMRSA-15,0.8785
same,fc Unassigned 1.47ppm,EMRSA-15,0.8868
same,fc Unassigned 3.4802ppm,EMRSA-15,0.9293
same,fc Unassigned 8.55ppm,EMRSA-15,0.9285
same,fc Uracil,EMRSA-15,1.738
same,fc Valine,EMRSA-15,1.029
same,fc ᴅ-alanine (LTA),EMRSA-15,1.157
same,haemolysis at the highest concentration tested 400 µg/ml,human red blood cells,50%
same,concentration at which 10% haemolysis is achieved,human red blood cells; three biological replicates,above 64 µg/ml and ~ 75 µg/ml
